From patent publication US4831033A (City of Hope, priority 1988, dated 1989)

What was measured:
[1] = test system: K^+ transport, P3 membrane fractions from whole brains of Swiss mice; experiment: K^+ transport (^86 Rb uptake) in P3 membrane fractions; type: biochemical; conditions: for K^+ Transport Relative Potency: relative to amodiaquin; for concentration inhibiting K^+ transport (selection criterion): submillimolar concentrations
Procedure: To obtain the data set forth in Table I, K^+ -transport was measured using P3 membrane fractions prepared from whole brains of Swiss mice. […] The resulting supernatant was centrifuged at 17,000 g for 15 minutes, and the supernatant from the latter was centrifuged at 70,000 g for 1 hour to pellet the P3 fraction. The P3 pellet was washed by resuspension in 50 mM Tris-citrate (pH 7.3). After 10 minutes on ice, the suspension was centrifuged at 70,000 g for 10 minutes. This washing procedure was repeated twice using distilled water for the resuspension. […] The suspension (2-3 mg protein/ml) was stabilized on ice for 1 hour prior to use. Uptake of ^86 Rb (radioactive) was used to assess the K^+ -transport of the P3 articles. Many published experiments have shown the ^86 Rb, with a half-life 36 times longer than ^42 K, is a suitable tracer for K. Rb permeates neuronal K channels as well as does K itself.
After filtration of the samples, the filters were washed rapidly three times with 10^-3 M triethanolamine containing 0.1M RbCl (non-radioactive) and counted in ACS liquid scintillation cocktail (Amersham). In calculating the results, the uptake found in the presence of 0.1M non-radioactive RbCl was subtracted from that found in the presence of various concentrations of the test substances in the presence of 10^-6 M ^86 RbCl alone. […] Between 0.2 and 0.5 mg/ml usually were employed. The results were normalized by calculating them as percentages of the uptake observed with 10^-6 M ^86 RbCl alone.

Acetylcholinesterase = molecular target: T1, Acetylcholinesterase (Electrophorus electricus, UniProt O42275); experiment: Acetylcholinesterase activity, acetylthiocholine substrate, colorimetric (Ellman); type: biochemical, electric eel; conditions: for Acetylcholinesterase Activity Relative Potency: relative to amodiaquin
T1 construct: prepared from the electric organ of the electric eel; from tissue; host or cells: electric organ of the electric eel
Procedure: Cholinesterase activity reported in Table I was measured by a standard procedure. The enzyme employed was prepared from the electric organ of the electric eel. It is known to have the same properties as the enzyme of mammalian nervous tissue. Acetylthiocholine was used as substrate.
Inhibitory potency of substances was determined by measuring enzyme activity in the absence and presence of varying concentrations of the test substances.

T1 sequence (O42275 24-633): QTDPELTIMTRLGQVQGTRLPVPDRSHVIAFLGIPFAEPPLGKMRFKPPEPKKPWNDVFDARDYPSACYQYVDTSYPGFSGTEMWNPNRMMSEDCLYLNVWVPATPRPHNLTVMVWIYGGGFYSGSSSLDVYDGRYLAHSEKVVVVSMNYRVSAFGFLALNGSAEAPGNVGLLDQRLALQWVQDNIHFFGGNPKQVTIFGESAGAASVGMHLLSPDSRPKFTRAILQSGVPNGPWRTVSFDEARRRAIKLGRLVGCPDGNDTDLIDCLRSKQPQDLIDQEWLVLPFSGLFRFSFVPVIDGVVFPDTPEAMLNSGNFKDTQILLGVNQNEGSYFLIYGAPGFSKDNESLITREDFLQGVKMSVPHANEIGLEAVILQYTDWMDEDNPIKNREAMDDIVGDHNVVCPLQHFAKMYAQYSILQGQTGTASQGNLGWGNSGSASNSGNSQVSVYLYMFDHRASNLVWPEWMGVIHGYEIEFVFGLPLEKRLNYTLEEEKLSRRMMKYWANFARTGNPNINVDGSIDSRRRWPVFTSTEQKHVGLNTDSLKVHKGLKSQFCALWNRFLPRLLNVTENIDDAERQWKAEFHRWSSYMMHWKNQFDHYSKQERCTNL

Row | Compound | K^+ Transport Rank Order [1] | K^+ transport inhibition compared with amodiaquin (in words) [1] | cholinesterase inhibitory potency compared with amodiaquin (in words) (Acetylcholinesterase) | Acetylcholinesterase Activity Rank Order (Acetylcholinesterase) | Acetylcholinesterase Activity Relative Potency (Acetylcholinesterase) | K^+ Transport Relative Potency [1] | concentration inhibiting K^+ transport (selection criterion) [1]
1 | Nc1c2ccccc2nc2ccccc12 [9-aminoacridine] | 2 | approximately one-half |  |  |  |  | 
2 | CCN(CC)Cc1cc(Nc2ccnc3cc(Cl)ccc23)ccc1O [Amodiaquin, amodiaquin] | 1 | ranked first | most effective cholinesterase inhibitor of this group |  |  |  | 
3 | CCN(CC)CCCC(C)Nc1ccnc2cc(Cl)ccc12 (stereo not shown) [Chloroquine, chloroquine] | 4 | approximately one-twentieth as active | less than one-thousandth | 5(4) | 0.001 | 0.067 | ≤ 10^-3 M
4 | CCN(CC)CCCC(C)Nc1c2ccc(Cl)cc2nc2ccc(OC)cc12 (stereo not shown) [Quinacrine, quinacrine] | 3 | approximately one-half | less than one-thousandth | 4(5) | 0.001 | 0.44 | ≤ 10^-3 M
